Measurements published in patent publication US20220395496A1 (Hoffmann-La Roche Inc., priority 2019, published 2022).

target: T1, human TLR8 (Homo sapiens, UniProt Q9NR97); experiment: HEK293-Blue-hTLR-8 cells assay (SEAP reporter, R848 stimulation); format: cell-based; details: HEK293-Blue-hTLR8 cells, R848, 20 hrs; lowest tested concentration 0.0032
T1 sequence (Q9NR97 27-1041): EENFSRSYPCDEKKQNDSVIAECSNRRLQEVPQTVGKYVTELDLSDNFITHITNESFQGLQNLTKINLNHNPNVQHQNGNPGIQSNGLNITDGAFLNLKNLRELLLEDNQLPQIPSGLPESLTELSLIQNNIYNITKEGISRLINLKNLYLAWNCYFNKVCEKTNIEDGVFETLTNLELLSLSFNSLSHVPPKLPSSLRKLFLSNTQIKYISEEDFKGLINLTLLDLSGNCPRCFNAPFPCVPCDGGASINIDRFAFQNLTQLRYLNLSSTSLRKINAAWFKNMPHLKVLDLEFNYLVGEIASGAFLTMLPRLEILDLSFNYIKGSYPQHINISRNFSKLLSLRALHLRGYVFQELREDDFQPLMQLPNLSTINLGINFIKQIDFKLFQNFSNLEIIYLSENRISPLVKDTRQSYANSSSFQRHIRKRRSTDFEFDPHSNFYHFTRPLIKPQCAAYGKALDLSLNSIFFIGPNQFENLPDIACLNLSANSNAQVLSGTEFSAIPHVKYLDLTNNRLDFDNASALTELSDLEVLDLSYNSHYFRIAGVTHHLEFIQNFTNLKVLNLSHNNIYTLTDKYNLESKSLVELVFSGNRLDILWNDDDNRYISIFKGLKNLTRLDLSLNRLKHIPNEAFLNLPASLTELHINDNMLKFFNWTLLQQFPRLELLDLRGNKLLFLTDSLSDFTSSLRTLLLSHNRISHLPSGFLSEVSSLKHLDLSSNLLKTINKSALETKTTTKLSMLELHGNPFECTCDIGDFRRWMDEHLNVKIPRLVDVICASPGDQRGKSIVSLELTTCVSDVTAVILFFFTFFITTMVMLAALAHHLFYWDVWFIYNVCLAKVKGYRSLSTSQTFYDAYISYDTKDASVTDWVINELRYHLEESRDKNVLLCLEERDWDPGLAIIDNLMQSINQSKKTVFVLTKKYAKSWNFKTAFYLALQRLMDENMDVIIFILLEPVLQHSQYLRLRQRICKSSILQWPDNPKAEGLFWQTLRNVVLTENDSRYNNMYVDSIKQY
Experimental: The following tests were carried out in order to determine the activity of the compounds of this invention in HEK293-Blue-hTLR-7/8/9 cells assay.
HEK293-Blue-hTLR-8 Cells Assay:
A stable HEK293-Blue-hTLR-8 cell line was purchased from InvivoGen (Cat. #: hkb-htlr8, San Diego, Calif., USA). These cells were originally designed for studying the stimulation of human TLR8 by monitoring the activation of NF-κB. A SEAP (secreted embryonic alkaline phosphatase) reporter gene was placed under the control of the IFN-β minimal promoter fused to five NF-κB and AP-1-binding sites. The SEAP was induced by activating NF-κB and AP-1 via stimulating HEK-Blue hTLR8 cells with TLR8 ligands. Therefore the reporter expression was declined by TLR8 antagonist under the stimulation of a ligand, such as R848, for incubation of 20 hrs. The cell culture supernatant SEAP reporter activity was determined using QUANTI-Blue™kit (Cat. #: rep-qb1, Invivogen, San Diego, Calif., USA) at a wavelength of 640 nm, a detection medium that turns purple or blue in the presence of alkaline phosphatase.
HEK293-Blue-hTLR8 cells were incubated at a density of […] cells/mL in a volume of 170 μL in a 96-well plate in Dulbecco's Modified Eagle's medium (DMEM) containing 4.5 g/L glucose, 50 U/mL penicillin, […], […], 2 mM L-glutamine, 10% (v/v) heat-inactivated fetal bovine serum with addition of 20 μL test compound in a serial dilution in the presence of final DMSO at 1% and 10 μL of 60 uM R848 in above DMEM, perform incubation under 37° C. in a CO2 incubator for 20 hrs. Then 20 μL of the supernatant from each well was incubated with 180 μL Quanti-blue substrate solution at 37° C. for 2 hrs and the absorbance was read at 620˜655 nm using a spectrophotometer. The signalling pathway that TLR8 activation leads to downstream NF-κB activation has been widely accepted, and therefore similar reporter assay was modified for evaluating TLR8 antagonist.

Row | Structure (SMILES) | IC50 [nM]
1 | C[C@H]1C[C@@H](N2CCc3cc(N4CCNCC4)ccc3C2)CN(c2ccc(C#N)c3ncccc23)C1 (relative stereo) [Example 24, 5-[cis-3-methyl-5-(6-piperazin-1-yl-3,4-dihydro-1H-isoquinolin-2-yl)-1-piperidyl]quinoline-8-carbonitrile] | < 3.2
2 | C[C@H]1C[C@@H](NCc2ccc(N3CCNCC3)cc2)CN(c2ccc(C#N)c3ncccc23)C1 [Example 1, 5-[(3S,5R)-3-methyl-5-[(4-piperazin-1-ylphenyl)methylamino]1-piperidyl]quinoline-8-carbonitrile] | < 3.2
3 | C[C@H]1C[C@@H](NCc2ccc(C3CCNCC3)cc2)CN(c2ccc(C#N)c3ncccc23)C1 [Example 2, 5-[(3S,5R)-3-methyl-5-[[4-(4-piperidyl)phenyl]methylamino]-1-piperidyl]quinoline-8-carbonitrile] | 6
4 | C[C@H]1C[C@@H](NCc2ccc(N3CCNCC3)cc2)CN(c2ccc(C#N)c3nccnc23)C1 [Example 3, 8-[(3S,5R)-3-methyl-5-[(4-piperazin-1-ylphenyl)methylamino]-1-piperidyl]quinoxaline-5-carbonitrile] | 4
5 | C[C@H]1C[C@@H](NCc2ccc(N3CCNCC3)cc2F)CN(c2ccc(C#N)c3ncccc23)C1 [Example 4, 5-[(3R,58)-3-[(2-fluoro-4-piperazin-1-yl-phenyl)methylamino]-5-methyl-1-piperidyl]quinoline-8-carbonitrile] | < 3.2
6 | C[C@H]1C[C@@H](NCc2ccc(N3CCNCC3)cn2)CN(c2ccc(C#N)c3ncccc23)C1 [Example 5, 5-[(3S,5R)-3-methyl-5-[(5-piperazin-1-yl-2-pyridyl)methylamino]-1-piperidyl]quinoline-8-carbonitrile] | 6
7 | C[C@H]1C[C@@H](NCc2cccc(N3CCN(C)CC3)c2)CN(c2ccc(C#N)c3ncccc23)C1 [Example 6, 5-[(3S,5R)-3-methyl-5-[[3-(4-methylpiperazin-1-yl)phenyl]methylamino]-1-piperidyl]quinoline-8-carbonitrile] | 4
8 | C[C@H]1C[C@@H](NCc2ccc(N3CCN(C)CC3)cc2)CN(c2ccc(C#N)c3ncccc23)C1 [Example 7, 5-[(3S,5R)-3-methyl-5-[[4-(4-methylpiperazin-1-yl)phenyl]methylamino]-1-piperidyl]quinoline-8-carbonitrile] | < 3.2
9 | C[C@H]1C[C@@H](NCc2cccc(N3CCNCC3)c2)CN(c2ccc(C#N)c3ncccc23)C1 [Example 8, 5-[(3S,5R)-3-methyl-5-[(3-piperazin-1-ylphenyl)methylamino]-1-piperidyl]quinoline-8-carbonitrile] | 9
10 | C[C@H]1C[C@@H](N(C)Cc2ccc(N3CCNCC3)cc2)CN(c2ccc(C#N)c3ncccc23)C1 [Example 9, 5-[(3S,5R)-3-methyl-5-[methyl-[(4-piperazin-1-ylphenyl)methyl]amino]-1-piperidyl]quinoline-8-carbonitrile] | 5
11 | C[C@H]1C[C@@H](NCc2ccc(N3CCNCC3)nc2)CN(c2ccc(C#N)c3ncccc23)C1 [Example 10] | < 3.2
12 | C[C@H]1C[C@@H](NCc2ccc3c(c2)CCNC3)CN(c2ccc(C#N)c3ncccc23)C1 [Example 11, 5-[(3S,5R)-3-methyl-5-(1,2,3,4-tetrahydroisoquinolin-6-ylmethylamino)-1-piperidyl]quinoline-8-carbonitrile] | < 3.2
13 | C[C@H]1C[C@@H](N2Cc3ccc(N4CCNCC4)cc3C2)CN(c2ccc(C#N)c3ncccc23)C1 [Example 12, 5-[(3S,5R)-3-methyl-5-(5-piperazin-1-ylisoindolin-2-yl)-1-piperidyl]quinoline-8-carbonitrile] | < 3.2
14 | C[C@H]1C[C@@H](NCc2ccc(N3CCC(N)C3)cc2)CN(c2ccc(C#N)c3ncccc23)C1 (stereo partly drawn) [Example 13, 5-[(3R,5S)-3-[[4-(3-aminopyrrolidin-1-yl)phenyl]methylamino]-5-methyl-1-piperidyl]quinoline-8-carbonitrile] | 6
15 | Cc1cc(-c2ccc(CN[C@@H]3C[C@H](C)CN(c4ccc(C#N)c5ncccc45)C3)cc2)cc(C)n1 [Example 15, 5-[(3R,5S)-3-[[4-(2,6-dimethyl-4-pyridyl)phenyl]methylamino]-5-methyl-1-piperidyl]quinoline-8-carbonitrile] | 10
16 | C[C@H]1C[C@@H](NCc2cnc(N3CCN(C)CC3)nc2)CN(c2ccc(C#N)c3ncccc23)C1 [Example 16, 5-[(3S,5R)-3-methyl-5-[[2-(4-methylpiperazin-1-yl)pyrimidin-5-yl]methylamino]-1-piperidyl]quinoline-8-carbonitrile] | < 3.2
17 | C[C@H]1C[C@@H](NCc2cnc(N3CCNCC3)nc2)CN(c2ccc(C#N)c3ncccc23)C1 [Example 17, 5-[(3S,5R)-3-methyl-5-[(2-piperazin-1-ylpyrimidin-5-yl)methylamino]-1-piperidyl]quinoline-8-carbonitrile] | < 3.2
18 | C[C@H]1C[C@@H](NCc2ccc(N3CCN(C)CC3)cn2)CN(c2ccc(C#N)c3ncsc23)C1 [Example 18, 7-[(3S,5R)-3-methyl-5-[[5-(4-methylpiperazin-1-yl)-2-pyridyl]methylamino]-1-piperidyl]-1,3-benzothiazole-4-carbonitrile] | < 3.2
19 | C[C@H]1C[C@@H](NCc2ccc(N3CCNCC3)cc2)CN(c2ccc(C#N)n3nccc23)C1 [Example 21, 4-[(3S,5R)-3-methyl-5-[(4-piperazin-1-ylphenyl)methylamino]-1-piperidyl]pyrazolo[1,5-a]pyridine-7-carbonitrile] | 42
20 | C[C@H]1C[C@@H](NCc2ccc(N3CCNCC3)cc2)CN(c2ccc(Cl)c3ncccc23)C1 [Example 22, (3R,5S)-1-(8-chloro-5-quinolyl)-5-methyl-N-[(4-piperazin-1-ylphenyl)methyl]piperidin-3-amine] | 5
21 | C[C@H]1C[C@@H](N2Cc3cc(N4CCNCC4)cnc3C2)CN(c2ccc(C#N)c3ncccc23)C1 [Example 23, 5-[(3S,5R)-3-methyl-5-(3-piperazin-1-yl-5,7-dihydropyrrolo[3,4-b]pyridin-6-yl)-1-piperidyl]quinoline-8-carbonitrile] | 4
22 | C[C@H]1C[C@@H](NCc2ncc(N3CCNCC3)cn2)CN(c2ccc(C#N)c3ncccc23)C1 [Example 25, 5-[(3S,5R)-3-methyl-5-[(5-piperazin-1-ylpyrimidin-2-yl)methylamino]-1-piperidyl]quinoline-8-carbonitrile] | < 3.2
23 | CC(N[C@@H]1C[C@H](C)CN(c2ccc(C#N)c3ncccc23)C1)c1ccc(N2CCNCC2)cc1 (stereo partly drawn) [Example 26, 5-[(3S,5R)-3-methyl-5-[1-(4-piperazin-1-ylphenyl)ethylamino]-1-piperidyl]quinoline-8-carbonitrile] | ≤ 3
24 | C[C@H]1C[C@@H](NCc2cnc(N3CCN[C@H](C)C3)nc2)CN(c2ccc(C#N)c3ncccc23)C1 [Example 28, 5-[(3S,5R)-3-methyl-5-[[2-[(3R)-3-methylpiperazin-1-yl]pyrimidin-5-yl]methylamino]-1-piperidyl]quinoline-8-carbonitrile] | < 3.2
